Reference: PubChem BioAssay (NCI)
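At the GI50, growth is halved. Definition used: TGI = concentration required for complete inhibition of growth.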

Assays:
Assay in all cases: DTP human tumour cell line panel, 384-well format
[1] = system: 786-0 renal
[2] = system: A498 renal
[3] = system: A549 NSCLC
[4] = system: ACHN renal
[5] = system: BT-549 breast
[6] = system: CAKI-1 renal
[7] = system: CCRF-CEM leukemia
[8] = system: COLO 205 colon
[9] = system: DU-145 prostate
[10] = system: EKVX NSCLC
[11] = system: HCC-2998 colon
[12] = system: HCT-116 colon
[13] = system: HCT-15 colon
[14] = system: HL-60(TB) leukemia
[15] = system: HOP-62 NSCLC
[16] = system: HOP-92 NSCLC
[17] = system: HS 578T breast
[18] = system: HT29 colon
[19] = system: IGROV1 ovarian
[20] = system: K-562 leukemia
[21] = system: KM12 colon
[22] = system: LOX IMVI melanoma
[23] = system: M14 melanoma
[24] = system: MALME-3M melanoma
[25] = system: MCF7 breast
[26] = system: MDA-MB-231 breast
[27] = system: MDA-MB-435 melanoma
[28] = system: MDA-MB-468 breast
[29] = system: MOLT-4 leukemia
[30] = system: NCI-H226 lung
[31] = system: NCI-H23 lung
[32] = system: NCI-H322M lung
[33] = system: NCI-H460 NSCLC
[34] = system: NCI-H522 lung
[35] = system: NCI/ADR-RES ovarian
[36] = system: OVCAR-3 ovarian
[37] = system: OVCAR-4 ovarian
[38] = system: OVCAR-5 ovarian
[39] = system: PC-3 prostate
[40] = system: RPMI-8226 leukemia
[41] = system: RXF 393 renal
[42] = system: SF-268 CNS
[43] = system: SF-295 CNS
[44] = system: SF-539 CNS
[45] = system: SK-MEL-2 melanoma
[46] = system: SK-MEL-28 melanoma
[47] = system: SK-MEL-5 melanoma
[48] = system: SK-OV-3 ovarian
[49] = system: SN12C renal
[50] = system: SNB-19 CNS
[51] = system: SNB-75 CNS
[52] = system: SR leukemia
[53] = system: SW-620 colon
[54] = system: T-47D breast
[55] = system: TK-10 renal
[56] = system: U251 glioblastoma
[57] = system: UACC-257 melanoma
[58] = system: UACC-62 melanoma
[59] = system: UO-31 renal

Cc1cc(Nc2cc(N3CCN(C)CC3)nc(C#Cc3ccccc3)n2)n[nH]1
GI50 [1]: 3.75 µM | TGI [1]: 15 µM | GI50 [2]: 1.66 µM | TGI [2]: 11 µM | GI50 [3]: 3.44 µM | TGI [3]: 12.2 µM | GI50 [4]: 1.23 µM | TGI [4]: 7.68 µM | GI50 [5]: 2.58 µM | TGI [5]: 7.09 µM | GI50 [6]: 1.6 µM | TGI [6]: 7.03 µM | GI50 [7]: 2.19 µM | TGI [7]: 7.01 µM | GI50 [8]: 3.73 µM | TGI [8]: 14.5 µM | GI50 [9]: 4.04 µM | TGI [9]: 17.4 µM | GI50 [10]: 2.79 µM | TGI [10]: 12.7 µM | GI50 [11]: 0.348 µM | TGI [11]: 6.72 µM | GI50 [12]: 2.94 µM | TGI [12]: 11.9 µM | GI50 [13]: 2.22 µM | TGI [13]: 11.4 µM | GI50 [14]: 2.12 µM | TGI [14]: 5.14 µM | GI50 [15]: 3.28 µM | TGI [15]: 13.5 µM | GI50 [16]: 2.23 µM | TGI [16]: 8.85 µM | GI50 [17]: 2.24 µM | TGI [17]: 9.92 µM | GI50 [18]: 3.95 µM | TGI [18]: 14.8 µM | GI50 [19]: 0.607 µM | TGI [19]: 3.28 µM | GI50 [20]: 2.63 µM | TGI [20]: 12.3 µM | GI50 [21]: 0.334 µM | TGI [21]: 10.4 µM | GI50 [22]: 4.02 µM | TGI [22]: 13 µM | GI50 [23]: 3.13 µM | TGI [23]: 16.5 µM | GI50 [24]: 2.57 µM | TGI [24]: 11.8 µM | GI50 [25]: 3.07 µM | TGI [25]: 15.1 µM | GI50 [26]: 3.54 µM | TGI [26]: 15.9 µM | GI50 [27]: 3.18 µM | TGI [27]: 12.6 µM | GI50 [28]: 1.51 µM | TGI [28]: 3.55 µM | GI50 [29]: 1.26 µM | TGI [29]: 2.58 µM | GI50 [30]: 4.3 µM | TGI [30]: 16.9 µM | GI50 [31]: 2.3 µM | TGI [31]: 10.9 µM | GI50 [32]: 5.44 µM | TGI [32]: 19.6 µM | GI50 [33]: 2.42 µM | TGI [33]: 12.1 µM | GI50 [34]: 1.71 µM | TGI [34]: 8.3 µM | GI50 [35]: 9.92 µM | TGI [35]: 22 µM | GI50 [36]: 2.12 µM | TGI [36]: 13.4 µM | GI50 [37]: 5.97 µM | TGI [37]: 20 µM | GI50 [38]: 3.53 µM | TGI [38]: 15.2 µM | GI50 [39]: 3.09 µM | TGI [39]: 13.9 µM | GI50 [40]: 3.24 µM | TGI [40]: 13.4 µM | GI50 [41]: 1.07 µM | TGI [41]: 4.32 µM | GI50 [42]: 4.58 µM | TGI [42]: 16.9 µM | GI50 [43]: 2.95 µM | TGI [43]: 13 µM | GI50 [44]: 3.62 µM | TGI [44]: 15.9 µM | GI50 [45]: 4.14 µM | TGI [45]: 6.87 µM | GI50 [46]: 5.59 µM | TGI [46]: 18.8 µM | GI50 [47]: 2.49 µM | TGI [47]: 12.9 µM | GI50 [48]: 1.04 µM | TGI [48]: 4.36 µM | GI50 [49]: 2.73 µM | TGI [49]: 12.7 µM | GI50 [50]: 6.17 µM | TGI [50]: 19.3 µM | GI50 [51]: 1.73 µM | TGI [51]: 4.35 µM | GI50 [52]: 1.36 µM | TGI [52]: 2.75 µM | GI50 [53]: 3.42 µM | TGI [53]: 12.5 µM | GI50 [54]: 9.61 µM | TGI [54]: 21.4 µM | GI50 [55]: 2.48 µM | TGI [55]: 15.2 µM | GI50 [56]: 5.41 µM | TGI [56]: 18.6 µM | GI50 [57]: 3.77 µM | TGI [57]: 14.3 µM | GI50 [58]: 3.1 µM | TGI [58]: 14.8 µM | GI50 [59]: 2.2 µM | TGI [59]: 8.13 µM
